Results: US7322965B2, “Infection-resistant medical devices” (priority 2002, dated 2008)
Converted amounts (≈) assume the structure as drawn. “Also recorded” adds a separate entry of the source. Where two headings read alike, the source gives them in different places. Marks after values point to notes of the source that are not given here.

Legend:
[1] = tested on: S. epidermidis isolates (UC-20207, UC-20208, and RP62A); test: Time course adherence assay, summary over three S. epidermidis isolates; assay type: cell-based; settings: for mean inhibitory effects on staphylococcal adherence: subtherapeutic (one-half MIC)
Method: (§1) Drug effects on bacterial adherence were measured 18 hours after treatment initiation using a quantitative spectrophotometric assay.
(§2) Relative inhibition of adherence was expressed by the following equation: (OD of control well−OD of treated well/OD of control well)×100, where OD is the mean optical density of six replicate wells from two separate experiments (three replicates per experiment). Control was defined as infected, drug-free cultures.
(§3) The primary efficacy variable in this study was the measurement of adherent bacteria to polystyrene surfaces after 18 hours to 24 hours of growth. To determine whether statistically significant differences existed between treatments (4×MIC, 2×MIC, MIC, and ½ MIC) compared with the infected-nontreated controls, multiple comparisons according to Dunnett's test (Montgomery, Design and Analysis of Experiments (1991)) were applied for each clinical strain. Differences were considered statistically significant when p<0.05.

[2] = tested on: S. epidermidis UC-20207; test: Time course adherence assay (prophylactic and delayed treatment); assay type: cell-based; settings: for inhibition at 1 µg/mL / inhibition at 2 µg/mL / inhibition at 4 µg/mL / inhibition at 80 µg/mL: Staphylococcus epidermidis, read-out: Percent inhibition of bacterial adherence relative to controls; for Mean OD550: UC-20207
Method: as §1, §2, §3

[3] = tested on: S. hominis SP-2; test: Determination of minimum inhibitory concentration (microdilution); assay type: cell-based; settings: Staphylococcus hominis, SP2; S. hominis SP-2; 18 h; read-out: MIC (minimum inhibitory concentration)
[4] = tested on: S. epidermidis UC-20208; test: Microtiter-plate adherence assay on polystyrene; assay type: cell-based; settings: for Adherence Mean OD550: S. epidermidis UC-20208, 18 h
Method: (§4) Briefly, the inoculum was established by the direct colony suspension method using the Prompt™ Inoculation System (Becton Dickinson, Sparks, Md.). The bacteria suspension, which was equal to the turbidity of a 0.5 McFarland standard, was diluted in TSB to a concentration of 1×10^6 colony forming units per ml (CFU/mL). One hundred microliters of the cell suspension was added to flat-bottom polystyrene wells (Corning Costar, Corning, N.Y.) containing 100 μl of TSB, with and without drug. The final inoculum concentration per well was approximately 5×10^5 CFU/mL. The plates were incubated at 37° C. under static conditions in air. At 18 hours (h) post-infection, the optical density of bacterial growth was measured at a wavelength of 595 nm in a microtiter plate reader (Vmax; Molecular Devices, Sunnyvale, Calif.). […] Adherent “sessile” cells then were fixed with 3.7% (v/v) formaldehyde/2% (w/v) sodium acetate and stained with 0.1% (w/v) crystal violet. Excess stain was rinsed off with deionized water and the plates were air-dried for 4 h. The optical density of bacterial adherence was determined at a wavelength of 550 nm. Preliminary studies were performed to determine the optimal wavelengths for measuring growth turbidity and stained adherent cells (data not shown). To compensate for background absorbance, optical density readings from wells treated with sterile medium, fixative and stain as described above were averaged and then subtracted from all test and control wells. Relative inhibition of adherence or growth was expressed by the following equation: (OD of control well−OD of treated well/OD of control well)×100, where OD is the mean optical density of six replicate wells from two separate experiments (three replicates per experiment). Control was defined as infected, drug-free cultures.
(§5) The primary efficacy variable in this study was the measurement of adherent bacterial cells to polystyrene after 18 h of growth. To determine whether statistically significant differences existed between treatment groups (MIC, ½ MIC, and ¼ MIC) compared with the infected-nontreated controls, the Kruskal-Wallis one-way analysis of variance (ANOVA) was applied for each clinical strain. Statistical significance was defined as p-values ≦0.05. An asterisk (*) was placed by all test values less than or equal to the specified significance level.

[5] = tested on: S. aureus UC-20205; test: Microtiter-plate adherence assay on polystyrene; assay type: cell-based; settings: for Adherence Mean OD550: S. aureus UC-20205, 18 h
Method: as §4, §5

[6] = tested on: S. aureus UC-20206; test: Microtiter-plate adherence assay on polystyrene; assay type: cell-based; settings: for Adherence Mean OD550: S. aureus UC-20206, 18 h
Method: as §4, §5

[7] = tested on: S. epidermidis RP62A; test: Determination of minimum inhibitory concentration (microdilution); assay type: cell-based; settings: Staphylococcus epidermidis; S. epidermidis RP62A; 18 h; read-out: MIC (minimum inhibitory concentration)
[8] = tested on: S. aureus and S. epidermidis strains; test: Microtiter-plate adherence assay, summary over all strains evaluated; assay type: cell-based, staphylococci
Method: as §4, §5

[9] = Staphylococcus epidermidis, UC20208, 18 h, read-out: Adherence % Inhibition
[10] = Staphylococcus aureus, UC20205, 18 h, read-out: Adherence % Inhibition
[11] = Staphylococcus aureus, UC20206, 18 h, read-out: Adherence % Inhibition

Which results are given for `CC(=O)NC[C@H]1CN(c2ccc(N3CCOCC3)c(F)c2)C(=O)O1` [Linezolid, (S)-N-[[3-[3-fluoro-4-(4-morpholinyl)phenyl]-2-oxo-5-oxazolidinyl]methyl]acetamide]?
inhibitory effects on adherence ([1]; 4×MIC, 6-hour delay, mean of three strains): 87.5%±11.7; mean inhibitory effects on staphylococcal adherence ([1]; 2 h delayed treatment, mean of three strains): 99.1%±1.4; mean inhibitory effects on staphylococcal adherence ([1]; 4 h delayed treatment, mean of three strains): 63.5%±39.2; anti-adhesion activity ([1]; therapeutic levels (≧MIC), 2- and 4-hour deferred treatments): potent anti-adhesion activity; inhibition at 1 µg/mL ([2]; UC20207, 0 h): 96.5%; inhibition at 2 µg/mL ([2]; UC20207, 0 h): 99%; inhibition at 4 µg/mL ([2]; UC20207, 0 h): 99.6%; inhibition at 80 µg/mL ([2]; UC20207, 0 h): 99.8%; inhibition at 1 µg/mL ([2]; UC20207, 2 h): 97.5%; inhibition at 2 µg/mL ([2]; UC20207, 2 h): 99.8%; inhibition at 4 µg/mL ([2]; UC20207, 2 h): 99.7%; inhibition at 80 µg/mL ([2]; UC20207, 2 h): 99.6%; inhibition at 1 µg/mL ([2]; UC20207, 4 h): 68.4%; inhibition at 2 µg/mL ([2]; UC20207, 4 h): 87.8%; inhibition at 4 µg/mL ([2]; UC20207, 4 h): 99.2%; inhibition at 80 µg/mL ([2]; UC20207, 4 h): 99%; inhibition at 1 µg/mL ([2]; UC20207, 6 h): 0%; inhibition at 2 µg/mL ([2]; UC20207, 6 h): 0%; inhibition at 4 µg/mL ([2]; UC20207, 6 h): 41.4%; inhibition at 80 µg/mL ([2]; UC20207, 6 h): 75.1%; Mean OD550 ([2]; 1.0 μg/ml, treatment 0 h post-infection): 0.084 ± 0.049; Mean OD550 ([2]; 1.0 μg/ml, treatment 2 h post-infection): 0.064 ± 0.046; Mean OD550 ([2]; 1.0 μg/ml, treatment 4 h post-infection): 0.921 ± 0.119; Mean OD550 ([2]; 1.0 μg/ml, treatment 6 h post-infection): 2.757 ± 0.173; Mean OD550 ([2]; 2.0 μg/ml (MIC), treatment 0 h post-infection): 0.024 ± 0.005; Mean OD550 ([2]; 2.0 μg/ml (MIC), treatment 2 h post-infection): 0.004 ± 0.002; Mean OD550 ([2]; 2.0 μg/ml (MIC), treatment 4 h post-infection): 0.356 ± 0.418; Mean OD550 ([2]; 2.0 μg/ml (MIC), treatment 6 h post-infection): 2.938 ± 0.119; Mean OD550 ([2]; 4.0 μg/ml, treatment 0 h post-infection): 0.009 ± 0.004; Mean OD550 ([2]; 4.0 μg/ml, treatment 2 h post-infection): 0.007 ± 0.001; Mean OD550 ([2]; 4.0 μg/ml, treatment 4 h post-infection): 0.022 ± 0.010; Mean OD550 ([2]; 4.0 μg/ml, treatment 6 h post-infection): 1.558 ± 0.094; Mean OD550 ([2]; linezolid 80 μg/ml, treatment 0 h post-infection): 0.005 ± 0.002; Mean OD550 ([2]; linezolid 80 μg/ml, treatment 2 h post-infection): 0.009 ± 0.003; Mean OD550 ([2]; linezolid 80 μg/ml, treatment 4 h post-infection): 0.028 ± 0.020; Mean OD550 ([2]; linezolid 80 μg/ml, treatment 6 h post-infection): 0.662 ± 0.103; MIC [3]: 2 µg/mL (≈ 5.93 µM); Adherence Mean OD550 ([4]; drug 0.5 μg/ml): 1.342 ± 0.791; Adherence Mean OD550 ([4]; drug 1.0 μg/ml): 0.001 ± 0.002*; Adherence Mean OD550 ([4]; drug 2.0 μg/ml (MIC)): 0.000 ± 0.001*; inhibition at 0.5 µg/mL [4, 9]: 26.7%; inhibition at 1 µg/mL [4, 9]: 99.9%; inhibition at 2 µg/mL [4, 9]: 100%; Adherence Mean OD550 ([5]; drug 0.5 μg/ml): 0.013 ± 0.007*; Adherence Mean OD550 ([5]; drug 1.0 μg/ml): 0.005 ± 0.007*; Adherence Mean OD550 ([5]; drug 2.0 μg/ml): 0.001 ± 0.001*; inhibition at 0.5 µg/mL [5, 10]: 97.6%; inhibition at 1 µg/mL [5, 10]: 99%; inhibition at 2 µg/mL [5, 10]: 99.7%; Adherence Mean OD550 ([6]; drug 1.0 μg/ml): 0.001 ± 0.002*; Adherence Mean OD550 ([6]; drug 2.0 μg/ml): 0.002 ± 0.002*; Adherence Mean OD550 ([6]; drug 4.0 μg/ml): 0.003 ± 0.003*; inhibition at 1 µg/mL [6, 11]: 99.4%; inhibition at 2 µg/mL [6, 11]: 99.3%; inhibition at 4 µg/mL [6, 11]: 98.5%; MIC [7]: 2 µg/mL (≈ 5.93 µM); effect on bacterial adhesion at subinhibitory concentrations ([8]; concentrations less than the MIC, as low as one-fourth the MIC, five strains): surprisingly effective at preventing bacterial adhesion; also recorded: significant inhibitory effects on cell adhesion in all strains evaluated; preventing adherence to polystyrene ([8]; one-fourth the MIC, five strains): effective in preventing adherence at one-fourth the MIC in all but one strain; percent inhibition of adherence relative to control ([8]; one-half the MIC, all strains evaluated): greater than or equal to 99.0%
